{"source": "PubChem BioAssay AID588780", "about": "(Sanford-Burnham Center for Chemical Genomics, 2011)", "note": "The source made the active and inactive calls.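 Rule for the calls: active = compounds whose fitted half-maximal concentration in the cell-protection dose series is at or below a set limit; inactive = the rest.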", "data": [{"tested_on": "H9c2 cardiomyocytes, 2-deoxyglucose stress, ATP luminescence, 2 h", "test": "H9c2 cell survival under 2-deoxyglucose stress – uHTS hits, dose response (AID 588780)", "values": [{"smiles": "COCCn1nnnc1CN(CCc1ccccc1)Cc1cc2cc(OC)ccc2[nH]c1=O", "IC50": "> 79 µM (inactive)"}, {"smiles": "COc1ccc(-c2cc(NC=O)c3ncc(-c4ccccc4)n3c2)cc1OC", "IC50": "> 79 µM (inactive)"}, {"smiles": "COc1ccc(C(CC(=O)N2CCN(c3ccccc3)CC2)c2c(OC)cc(OC)c3ccc(=O)oc23)cc1", "note": "(configuration not stated)", "IC50": "23.2 µM"}, {"smiles": "COc1ccc(-c2cc(-c3nnc(COC(=O)C4CC4)o3)c3ccccc3n2)cc1OC", "IC50": "6.83 µM"}, {"smiles": "CCCN1Cc2cccc(C(N)=O)c2C1=O", "IC50": "> 79 µM (inactive)"}, {"smiles": "CC1(C)CC(=O)C2=C(C1)N(CCN1CCOCC1)C1=C(C(=O)CC(C)(C)C1)C2c1ccc(Cl)cc1", "IC50": "31.3 µM (inactive)"}, {"smiles": "C[C@@H](C(=O)Nc1nc(-c2ccccn2)cs1)N1C(=O)C2CCCCC2C1=O", "note": "(some centres not stated)", "IC50": "> 79 µM (inactive)"}, {"smiles": "CC(=O)c1cccc(NC(=O)C(C)OC(=O)Cc2n[nH]c(=O)c3ccccc23)c1", "note": "(configuration not stated)", "IC50": "> 79 µM (inactive)"}, {"smiles": "Cc1ccc(C)c(C(=O)COC(=O)Cn2[nH]c(=O)c3ccccc3c2=O)c1", "IC50": "> 79 µM (inactive)"}, {"smiles": "O=C(CCc1nc2ccccc2c(=O)[nH]1)Nc1ccc(Cl)c(Cl)c1", "IC50": "20.6 µM"}, {"smiles": "O=C(CSc1nnc(Cc2cccs2)n1CCc1ccccc1)N1CCCc2ccccc21", "IC50": "> 79 µM (inactive)"}, {"smiles": "CCCCOc1ccc(C(=O)NCC(=O)N(C)Cc2nc3ccccc3c(=O)[nH]2)cc1", "IC50": "> 79 µM (inactive)"}, {"smiles": "Cc1cccc(NC(=O)COc2cccc3c2CCNC3=O)c1", "IC50": "> 79 µM (inactive)"}, {"smiles": "C1=C(c2ccccc2)CCN(c2nc3ccccc3n3cnnc23)C1", "IC50": "27.6 µM"}, {"smiles": "O=C(Oc1ccc(N(Cc2cccs2)C2=NS(=O)(=O)c3ccccc32)cc1)c1ccccc1Cl", "IC50": "> 79 µM (inactive)"}, {"smiles": "CCCC(=O)Nc1nc2ccc(NC(=O)c3ccc(Br)o3)cc2s1", "IC50": "> 79 µM (inactive)"}, {"smiles": "CCN(Cc1ccccc1)C(=O)c1cc2c(=O)oc3ccc(C)cc3c2s1", "IC50": "> 79 µM (inactive)"}, {"smiles": "CCOC(=O)N1CCC(n2c(SCC(=O)N3CCC(C)CC3)nc3ccccc3c2=O)CC1", "IC50": "> 79 µM (inactive)"}, {"smiles": "COc1ccc(/C=N/NC(=O)c2cc(OC)c(OC)c(OC)c2)cc1CN1CCc2cc(OC)c(OC)cc2C1C", "note": "(configuration not stated)", "IC50": "> 79 µM (inactive)"}, {"smiles": "CN(CC(=O)Nc1cccc(F)c1)C(=O)CCCc1nc2ccccc2c(=O)[nH]1", "IC50": "> 79 µM (inactive)"}, {"smiles": "O=c1[nH]nc(CNc2ccc(C(F)(F)F)cc2)c2ccccc12", "IC50": "15.1 µM"}, {"smiles": "CC1CCCC(C)N1C(=O)COC(=O)c1n[nH]c(=O)c2ccccc12", "note": "(configuration not stated)", "IC50": "> 79 µM (inactive)"}, {"smiles": "CC(C)CC(=O)Nc1ccc(C(=O)COC(=O)Cc2n[nH]c(=O)c3ccccc23)cc1", "IC50": "> 79 µM (inactive)"}, {"smiles": "COc1ccccc1NC(=O)c1cc(-c2ccc(OC)c(OC)c2)nc2ccccc12", "IC50": "> 79 µM (inactive)"}, {"smiles": "CCOC(=O)N1CCc2c(sc(NC(=O)CN3CCOCC3)c2C(=O)Nc2ccccc2)C1", "IC50": "54.6 µM (inactive)"}, {"smiles": "Cc1cnc(C=O)c2cccc([N+](=O)[O-])c12", "IC50": "44.6 µM (inactive)"}, {"smiles": "O=C(Nc1cccc(Cl)c1)c1nc[nH]c1C(=O)NCCCCNC(=O)c1[nH]cnc1C(=O)Nc1cccc(Cl)c1", "IC50": "> 79 µM (inactive)"}, {"smiles": "CC(OC(=O)CCc1nc2ccccc2c(=O)[nH]1)C(=O)Nc1ccc2c(c1)OCO2", "note": "(configuration not stated)", "IC50": "> 79 µM (inactive)"}, {"smiles": "CCC(CC)C(=O)N(CCc1ccc(OC)cc1)Cc1nc2ccccc2c(=O)[nH]1", "IC50": "> 79 µM (inactive)"}, {"smiles": "O=C(NCCc1ccc(F)cc1)C(=O)Nc1cc2c3c(c1)CC(=O)N3CCC2", "IC50": "26.9 µM"}, {"smiles": "O=c1[nH]c2cccc(Cl)c2c2ccccc12", "IC50": "> 79 µM (inactive)"}, {"smiles": "O=C(CCCSc1nc2sc3c(c2c(=O)[nH]1)CCC3)NCCCO", "IC50": "> 79 µM (inactive)"}, {"smiles": "O=C(CNC(=O)c1nc[nH]c1C(=O)NCC(=O)OCc1ccccc1)OCc1ccccc1", "IC50": "39.5 µM (inactive)"}, {"smiles": "COc1ccc(-c2oc(=O)c3cc(OC)c(OC)cc3c2C#CCCO)cc1", "IC50": "> 79 µM (inactive)"}, {"smiles": "CC(=O)Nc1cccc(/C(C)=N/NC(=O)c2cccs2)c1", "IC50": "> 79 µM (inactive)"}, {"smiles": "CC(=O)Nc1cccc(-c2cc(NC(C)=O)c3ncc(-c4ccccc4)n3c2)c1", "IC50": "12.8 µM"}, {"smiles": "Cc1ccc(C)c(S(=O)(=O)N2CCN(C(=O)Cn3[nH]c(=O)c4ccccc4c3=O)CC2)c1", "IC50": "> 79 µM (inactive)"}]}]}
